US11214594B2, “Antimicrobial peptide having synergistic antibacterial effect with antibiotics on multidrug resistant bacteria, and use thereof” (priority 2016, dated 2022)
≈ marks a conversion by molar mass, not a printed value. Where a SMILES comes first, the peptide text is derived from it.

What was measured:
MDRST 8007 = test: Minimal inhibitory concentration (MIC), single agent; type: cell-based, Salmonella typhimurium; details: agent alone
Summary of the method: (§1)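 Peptides were serially diluted twofold in Mueller-Hinton medium and combined 1:1 with bacterial suspensions prepared at 2×10^6 CFU. Readout was the minimal inhibitory concentration, i.e. the lowest concentration with no growth.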

A. baumannii [1] = test: MIC of antibiotic during combined treatment with antimicrobial peptide; type: cell-based, Acinetobacter baumannii; details: for Antibiotic MIC, Erythromycin / Antibiotic MIC, Linezolid / Antibiotic MIC, Vancomycin: A. baumannii
Summary of the method: (§2)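 Antibiotic diluted in MH medium, dispensed per well with peptide; setup repeated with roles reversed; MIC read per combination.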

S. aureus = test: microbe, parasite or virus in culture; type: cell-based, Staphylococcus aureus
Summary of the method: as §1

A. baumannii [2] = test: MIC of antimicrobial peptide during combined treatment with antibiotic; type: cell-based, Acinetobacter baumannii
Summary of the method: (§3)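 Antibiotic MIC came from antibiotic dilutions added to bacteria (2×10^6 CFU/ml, MH medium) already combined with peptide serially diluted 2:1 from its own MIC. Swapping the roles of the two agents gave the peptide MIC.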

MDRAB 12035 = test: as above; type: cell-based, Acinetobacter baumannii
Summary of the method: as §3

E. coli = test: MIC of antibiotic during combined treatment with antimicrobial peptide; type: cell-based, Escherichia coli; details: for Antibiotic MIC, Erythromycin: E. coli
Summary of the method: as §2

[3] = combined with peptide at 1 μg/ml
[4] = combined with peptide at 2 μg/ml
[5] = combined with peptide at 4 μg/ml
[6] = combined with peptide at 6 μg/ml
[7] = combined with peptide at 8 μg/ml
[8] = combined with peptide at 16 μg/ml
[9] = combined with peptide at 32 μg/ml
[10] = combined with peptide at 64 μg/ml
[11] = erythromycin 4 μg/ml (Conc./MIC 1/8)
[12] = erythromycin 8 μg/ml (Conc./MIC 1/4)
[13] = erythromycin 16 μg/ml (Conc./MIC 1/2)
[14] = erythromycin 32 μg/ml (Conc./MIC 1)
[15] = vancomycin 512 μg/ml (Conc./MIC 1/2)
[16] = vancomycin 1024 μg/ml (Conc./MIC 1)

CC[C@H](C)[C@H](NC(=O)[C@H](CCCCN)NC(=O)[C@H](Cc1c[nH]c2ccccc12)NC(=O)[C@@H](N)CCCNC(=N)N)C(=O)N[C@@H](Cc1ccccc1)C(=O)N[C@@H](CCCCN)C(=O)N[C@@H](CCCCN)C(=O)N[C@H](C(=O)N1CCC[C@H]1C(=O)N[C@@H](CCCCN)C(=O)N[C@@H](CC(C)C)C(=O)N[C@@H](CC(C)C)C(=O)N[C@@H](Cc1c[nH]cn1)C(=O)N[C@@H](CO)C(=O)N[C@@H](CC(C)C)C(=O)N[C@@H](CCCCN)C(=O)N[C@@H](CCCCN)C(=O)N[C@@H](Cc1c[nH]c2ccccc12)C(N)=O)[C@@H](C)CC [PapMA-10, RWK IFK KIP KLL HSL KKW-NH2] (H-RWKIFKKIPKLLHSLKKW-NH2; N-terminus assumed)
Minimal inhibitory concentration MIC (MDRST 8007): 32 µg/mL (≈ 13.6 µM)
Synergistic effect of antibacterial activity with existing antibiotics compared with PapMA-1 (A. baumannii [1]; A. baumannii and MDRAB 12035): level similar to that of PapMA-1 peptide
Antibiotic MIC, Erythromycin (A. baumannii [1]; [3]): 32 µg/mL
Antibiotic MIC, Linezolid (A. baumannii [1]; [3]): >128 µg/mL
Antibiotic MIC, Vancomycin (A. baumannii [1]; [3]): >128 µg/mL
Antibiotic MIC, Erythromycin (A. baumannii [1]; [4]): 16 µg/mL
Antibiotic MIC, Linezolid (A. baumannii [1]; [4]): 128 µg/mL
Antibiotic MIC, Vancomycin (A. baumannii [1]; [4]): 64 µg/mL
Antibiotic MIC, Erythromycin (A. baumannii [1]; [5]): 8 µg/mL
Antibiotic MIC, Linezolid (A. baumannii [1]; [5]): 64 µg/mL
Antibiotic MIC, Vancomycin (A. baumannii [1]; [5]): 16 µg/mL
Antibiotic MIC, Erythromycin (A. baumannii [1]; [6]): 2 µg/mL
Antibiotic MIC, Linezolid (A. baumannii [1]; [6]): 32 µg/mL
Antibiotic MIC, Vancomycin (A. baumannii [1]; [6]): 16 µg/mL
Antibiotic MIC, Erythromycin (A. baumannii [1]; [7]): 0.5 µg/mL
Antibiotic MIC, Linezolid (A. baumannii [1]; [7]): 8 µg/mL
Antibiotic MIC, Vancomycin (A. baumannii [1]; [7]): 4 µg/mL
Antibiotic MIC, Erythromycin (A. baumannii [1]; [8]): 0 µg/mL
Antibiotic MIC, Linezolid (A. baumannii [1]; [8]): 0 µg/mL
Antibiotic MIC, Vancomycin (A. baumannii [1]; [8]): 0 µg/mL
Antibiotic MIC, Erythromycin (A. baumannii [1]; [9]): 0 µg/mL
Antibiotic MIC, Linezolid (A. baumannii [1]; [9]): 0 µg/mL
Antibiotic MIC, Vancomycin (A. baumannii [1]; [9]): 0 µg/mL
Antibiotic MIC, Erythromycin (A. baumannii [1]; [10]): 0 µg/mL
Antibiotic MIC, Linezolid (A. baumannii [1]; [10]): 0 µg/mL
Antibiotic MIC, Vancomycin (A. baumannii [1]; [10]): 0 µg/mL
Minimal inhibitory concentration MIC (S. aureus): >128 µg/mL
Peptide MIC during treatment with antibiotic (A. baumannii [2]; [11]): 8 µg/mL
Peptide MIC during treatment with antibiotic (A. baumannii [2]; [12]): 4 µg/mL
Peptide MIC during treatment with antibiotic (A. baumannii [2]; [13]): 2 µg/mL
Peptide MIC during treatment with antibiotic (A. baumannii [2]; [14]): 0 µg/mL
Peptide MIC during treatment with antibiotic (A. baumannii [2]; linezolid 32 μg/ml (Conc./MIC 1/8)): 8 µg/mL
Peptide MIC during treatment with antibiotic (A. baumannii [2]; linezolid 64 μg/ml (Conc./MIC 1/4)): 4 µg/mL
Peptide MIC during treatment with antibiotic (A. baumannii [2]; linezolid […] (Conc./MIC 1)): 0 µg/mL
Peptide MIC during treatment with antibiotic (A. baumannii [2]; linezolid […] (Conc./MIC 1/2)): 4 µg/mL
Peptide MIC during treatment with antibiotic (A. baumannii [2]; [15]): 1 µg/mL
Peptide MIC during treatment with antibiotic (A. baumannii [2]; [16]): 0 µg/mL
Peptide MIC during treatment with antibiotic (A. baumannii [2]; vancomycin […] (Conc./MIC 1/4)): 1 µg/mL
Peptide MIC during treatment with antibiotic (A. baumannii [2]; vancomycin […] (Conc./MIC 1/8)): 4 µg/mL
Peptide MIC during treatment with erythromycin (MDRAB 12035; [11]): 16 µg/mL
Peptide MIC during treatment with erythromycin (MDRAB 12035; [12]): 8 µg/mL
Peptide MIC during treatment with erythromycin (MDRAB 12035; [13]): 4 µg/mL
Peptide MIC during treatment with erythromycin (MDRAB 12035; [14]): 0 µg/mL
Peptide MIC during treatment with linezolid (MDRAB 12035; linezolid 64 μg/ml (Conc./MIC 1/8)): 4 µg/mL
Peptide MIC during treatment with linezolid (MDRAB 12035; linezolid 512 μg/ml (Conc./MIC 1)): 0 µg/mL
Peptide MIC during treatment with linezolid (MDRAB 12035; linezolid […] (Conc./MIC 1/2)): 2 µg/mL
Peptide MIC during treatment with linezolid (MDRAB 12035; linezolid […] (Conc./MIC 1/4)): 2 µg/mL
Peptide MIC during treatment with vancomycin (MDRAB 12035; [15]): 2 µg/mL
Peptide MIC during treatment with vancomycin (MDRAB 12035; [16]): 1 µg/mL
Peptide MIC during treatment with vancomycin (MDRAB 12035; vancomycin […] (Conc./MIC 1/4)): 4 µg/mL
Peptide MIC during treatment with vancomycin (MDRAB 12035; vancomycin […] (Conc./MIC 1/8)): 4 µg/mL
Synergistic effect of antibacterial activity with existing antibiotics compared with PapMA-1 (E. coli; E. coli and MDREC1229): level similar to that of the PapMA-1 peptide
Antibiotic MIC, Erythromycin (E. coli; erythromycin combined with peptide at 1 μg/ml): 128 µg/mL
Antibiotic MIC, Erythromycin (E. coli; erythromycin combined with peptide at 2 μg/ml): 64 µg/mL
Antibiotic MIC, Erythromycin (E. coli; erythromycin combined with peptide at 4 μg/ml): 32 µg/mL
